From patent publication US9126976B2 (Merck Sharp & Dohme Corp., priority 2011, dated 2015)

Tests used:
[1] = target: T1, CETP (Homo sapiens (Human), UniProt P11597); assay: RTA assay, CETP-catalyzed CE and TG transfer, recombinant CETP (2% human serum); type: biochemical
Experimental: (§1) In Vitro Radioactive Assays of CETP-Catalyzed CE and TG Transfer (RTA Assay)
(§2) Reagents and sources are: [3H] cholesteryl oleate (GE #TRK.886), [3H] Triolein (Perkin-Elmer NET-431), Butylated hydroxyl toluene (Aldrich, #D4740-4), DOPC (Sigma, # P6354), Sodium Bromide (Fisher scientific #S255-500), PEG 8000 (Fisher, #BP233-1), and human HDL (Intracel Corp #RP-036).
(§3) An in vitro assay for determining IC50's to identify compounds that inhibit CETP transfer activity is performed based on a modification of a published method (Morton and Zilversmit, (1981) A plasma inhibitor of triglyceride and cholesteryl ester transfer activities, J. Biol. Chem. 256(23), 11992-11995). The ability of inhibitors to alter CETP activity is performed using two different assays: one using recombinant CETP and one using an endogenous plasma source of CETP. Both assays measure the transfer of [3H] cholesteryl oleate or [3H] triolein from exogenous LDL to HDL.
(§4) Radiolabeled donor particles are generated by first combining 100 μl of 200 μM butylated hydroxyl toluene in CHCl3, 216 μL of 21.57 mM DOPC in EtOH, and either 500 μCi [3H]-triolein (Perkin Elmer #NET-431) or 500 μCi [3H]-cholesteryl oleate (GE #TRK886) in a glass tube. Reagents are mixed, dried under nitrogen, and then resuspended in 2 mL of 50 mM Tris, 27 μM EDTA at pH 7.4. After a brief vortex, the solution is sonicated until clear and mixed with 20 mL of fresh human serum. The mixture is incubated overnight at 37° C. The [3H] labeled LDL substrate is separated at 1.063 g/ml density by sequential ultracentrifugal flotation in NaBr according to the method by (Havel, Eder et al. 1955; Chapman, Goldstein et al. 1981). Once isolated the particles are dialyzed 3× in CETP buffer (50 mM Tris, pH 7.4, 100 mM NaCl, 1 mM EDTA). Human HDL is purchased from Intracel and used as the acceptor particles.
(§5) Transfer assays are performed in a 96-well v-bottom polypropylene plate. For the RTA using recombinant CETP (2% RTA), an assay cocktail is prepared with the final concentrations 128 μg/mL HDL, 20 nM rCETP, 2% human serum, and 1×CETP buffer. 1 μL of each test compound diluted in DMSO is added to 47 μL of assay cocktail per well and incubated at 37° C. for 1 hour. To initiate the transfer reaction, 2 μL radiolabeled LDL is added. After an additional 60 min of incubation at 37° C., the transfer action is terminated by precipitation of LDL with an equal volume of 20% W/V PEG 8000. The plates are centrifuged at 2000 rpm for 30 minutes at 4° C. A 40 μL aliquot of the HDL-containing supernatant is transferred to a Packard Optiplate™ with 200 μL of MicroScint™ 20. After mixing, plates are counted by liquid scintillation. Counts present in the supernatant for blanks (wells containing only HDL acceptor, CETP buffer and DMSO) are subtracted from those containing test compounds and used to correct for non-specific transfer.
Comparison of the counts of samples with inhibitors to an uninhibited (DMSO only) positive control yield a percent inhibition. A plot of percent inhibition vs. log of inhibitor concentration, fit to a Sigmoidal 4 parameter equation is used to calculate IC50.
Target sequence in this assay (P11597 18-493 limits assumed): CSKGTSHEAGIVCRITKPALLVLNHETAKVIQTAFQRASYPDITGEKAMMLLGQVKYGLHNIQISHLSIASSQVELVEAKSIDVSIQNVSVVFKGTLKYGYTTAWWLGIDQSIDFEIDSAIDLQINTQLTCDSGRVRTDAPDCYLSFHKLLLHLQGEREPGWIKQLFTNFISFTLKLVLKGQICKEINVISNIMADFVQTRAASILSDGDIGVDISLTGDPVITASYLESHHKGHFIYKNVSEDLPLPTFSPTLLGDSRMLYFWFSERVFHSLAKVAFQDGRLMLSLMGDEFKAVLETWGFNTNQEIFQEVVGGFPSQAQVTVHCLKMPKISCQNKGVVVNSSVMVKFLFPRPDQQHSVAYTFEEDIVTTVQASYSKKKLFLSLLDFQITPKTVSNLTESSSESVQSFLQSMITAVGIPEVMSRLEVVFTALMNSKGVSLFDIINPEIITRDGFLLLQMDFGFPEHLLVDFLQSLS

[2] = target: T1, CETP; assay: Scintillation Proximity Assay (SPA) for CETP activity; type: biochemical
Experimental: Protocol: Scintillation Proximity Assay (SPA) for CETP Activity
First, low density lipoprotein (LDL) (Meridian) was biotinylated by incubating LDL with biotin for 1 hour on ice, after which it was dialyzed to remove free biotin. Then compounds at varying concentrations were incubated with 15 nM CETP (reagent production group, In Vitro Pharmacology, MRL Rahway) and 50 ug/ml of the biotinylated LDL in 50 mM HEPES, 150 mM NaCl, pH 7.4, for 1 hour at 37° C. The reaction was started by adding 3H-cholesterol ester high density lipoprotein (HDL) (American Radiochemicals Corp) at a concentration of ˜0.6 nM. The reaction proceeded for 2 hours at 37° C., after which time it was quenched by the addition of 12% acetic acid. PVT streptavadin-coated scintillation proximity beads, which had been brought to room temperature, were then added at a concentration of 4 mg/ml. The assay was then mixed and counted after one half hour in a Microbeta plate reader.
Target sequence in this assay (P11597 18-493): as the sequence (P11597 18-493 limits assumed) above

[3] = target: endogenous CETP from serum (Homo sapiens (Human), UniProt P11597); assay: RTA assay using endogenous CETP from serum (95% human serum); type: biochemical; conditions: RTA in 95% human serum, Table 2
Experimental: as §1, §2, §3, §4
as §5, with “Counts present in the supernatant for blanks (wells containing only HDL acceptor, CETP buffer and DMSO) are subtracted from those containing test compounds and used to correct for non-specific transfer.” left out

[4] = cited from earlier work
[5] = torcetrapib and atorvastatin concomitantly compared with atorvastatin alone; cited from earlier work
[6] = patients, with baseline statin therapy, compared with just a statin

Sequence of endogenous CETP from serum (P11597 18-493 limits assumed): as above

## O[C@H](CN1c2ccccc2N(Cc2cccc(OC(F)(F)F)c2)C[C@H]1c1ccccc1)C(F)(F)F [Example 1, (R)-3-((R)-4-(3-trifluoromethoxy)-2-phenyl-3,4-dihydroquinoxalin-1(2H)-yl)-1,1,1-trifluoropropan-2-ol]
[1]
  IC50: 19 nM

## O[C@@H](CN1c2ccccc2N(Cc2cccc(OC(F)(F)F)c2)C[C@H]1c1ccccc1)C(F)(F)F [Example 2, (S)-3-((R)-4-(3-trifluoromethoxy)-2-phenyl-3,4-dihydro-quinoxalin-1(2H)-yl)-1,1,1-trifluoro-propan-2-ol]
[1]
  IC50: 1350 nM

## O[C@H](CN1c2ccccc2N(Cc2cc(C(F)(F)F)cc(C(F)(F)F)c2)C[C@H]1c1ccccc1)C(F)(F)F [Example 3]
[1]
  IC50: 74 nM

## O[C@H](CN1c2ccccc2N(Cc2cccc(OC(F)(F)C(F)F)c2)C[C@H]1c1ccccc1)C(F)(F)F [Example 4, (R)-1,1,1-trifluoro-3-((R)-2-phenyl-4-(3-(1,1,2,2-tetrafluoroethoxy)benzyl)-3,4-dihydroquinoxalin-1(2H)-yl)-propan-2-ol]
[1]
  IC50: 112 nM

## O[C@H](CN1c2ccccc2N(Cc2cc(OC(F)(F)F)ccc2F)C[C@H]1c1ccccc1)C(F)(F)F [Example 5, (R)-1,1,1-trifluoro-3-((R)-4-(2-fluoro-5-(trifluoromethoxy)benzyl)-2-phenyl-3,4-dihydroquinoxalin-1(2H)-yl)-propan-2-ol]
[1]
  IC50: 11 nM

## CCc1cc(CN2C[C@@H](c3ccccc3)N(C[C@@H](O)C(F)(F)F)c3ccccc32)ccc1Cl [Example 6, (R)-3-((R)-4-(4-chloro-3-ethylbenzyl)-2-phenyl-3,4-dihydroquinoxalin-1(2H)-yl)-1,1,1-trifluoropropan-2-ol]
[1]
  IC50: 30 nM

## O[C@H](CN1c2ccccc2N(Cc2cccc(F)c2)C[C@H]1c1ccccc1)C(F)(F)F [Example 7, (R)-3-((R)-4-(3-fluorobenzyl)-2-phenyl-3,4-dihydroquinoxalin-1(2H)-yl)-1,1,1-trifluoropropan-2-ol]
[1]
  IC50: 110 nM

## CCOc1cccc(CN2C[C@@H](c3ccccc3)N(C[C@@H](O)C(F)(F)F)c3ccccc32)c1 [Example 8, (R)-3-((R)-4-(3-ethoxybenzyl)-2-phenyl-3,4-dihydroquinoxalin-1(2H)-yl)-1,1,1-trifluoropropan-2-ol]
[1]
  IC50: 301 nM

## O[C@H](CN1c2ccccc2N(Cc2cccc(C(F)(F)F)c2)C[C@H]1c1ccccc1)C(F)(F)F [Example 9, (R)-3-((R)-4-(3-trifluoromethylbenzyl)-2-phenyl-3,4-dihydroquinoxalin-1(2H)-yl)-1,1,1-trifluoropropan-2-ol]
[1]
  IC50: 47 nM

## O[C@H](CN1c2ccccc2N(Cc2cccc(OC(F)(F)F)c2)C[C@H]1c1ccccc1)C(F)(F)F [Example 17, (R)-3-((R)-4-(3-trifluoromethoxy)-2-phenyl-3,4-dihydroquinoxalin-1(2H)-yl)-1,1,1-trifluoro-propan-2-ol]
[1]
  IC50: 34 nM

## O[C@H](CN1c2ccccc2N(C2CCCc3ccccc32)CC1c1cccc(C(F)(F)F)c1)C(F)(F)F (stereo partly drawn) [Example 57, (2R)-1,1,1-trifluoro-3(4-(1,2,3,4-tetrahydronaphthalen-1-yl)-2-(3-trifluoromethyl)phenyl)-3,4-dihydroquinoxalin-1(2H)-yl-propan-2-ol]
[2]; Table 1, read-out: IC50
  IC50: 12 nM

## O[C@H](CN1c2ccc(F)cc2N(Cc2cccc(OC(F)(F)F)c2)CC1c1cccc(OC(F)F)c1)C(F)(F)F (stereo partly drawn) [Example 58]
[3]
  IC50: 16 nM

## CC(C)(O)c1ccc(C2CN(Cc3cccc(OC(F)(F)F)c3)c3ccccc3N2C[C@@H](O)C(F)(F)F)cc1 (stereo partly drawn) [Example 59]
[3]
  IC50: 24 nM

## O[C@H](CN1c2ccccc2N(Cc2cccc(OC(F)F)c2)CC1c1cccc(OC(F)F)c1)C(F)(F)F (stereo partly drawn) [Example 60]
[3]
  IC50: 14 nM

## O[C@H](CN1c2ccccc2N(Cc2cccc(OC(F)(F)F)c2)CC1c1cccc(OC(F)F)c1)C(F)(F)F (stereo partly drawn) [Example 61]
[3]
  IC50: 7.5 nM

## O[C@H](CN1c2ccccc2N(Cc2ccnc(N3CCOCC3)c2)C[C@H]1c1cccc(C(F)(F)F)c1)C(F)(F)F [Example 62]
[2]; Table 2, read-out: IC50 SPA
  IC50: 326 nM

## O[C@H](CN1c2ccccc2N(Cc2ncccc2N2CCOCC2)C[C@H]1c1cccc(C(F)(F)F)c1)C(F)(F)F [Example 63]
[2]; Table 2, read-out: IC50 SPA
  IC50: 1570 nM

## O[C@H](CN1c2ccccc2N(Cc2cccc(OC(F)F)c2)C[C@H]1c1cccc(C(F)(F)F)c1)C(F)(F)F [Example 64]
[2]; Table 2, read-out: IC50 SPA
  IC50: 16 nM

## O[C@H](CN1c2c(ccc(F)c2F)N(Cc2cccc(OC(F)(F)F)c2)CC1c1cccc(C(F)(F)F)c1)C(F)(F)F (stereo partly drawn) [Example 65]
[2]; Table 2, read-out: IC50 SPA
  IC50: 157 nM

## O[C@H](CN1c2ccccc2N(CC2=CCCCC2)C[C@H]1c1cccc(OC(F)(F)F)c1)C(F)(F)F [Example 66]
[2]; Table 2, read-out: IC50 SPA
  IC50: 8 nM

## O[C@H](CN1c2ccccc2N(CC2CCOCC2)C[C@H]1c1cccc(OC(F)(F)F)c1)C(F)(F)F [Example 67]
[2]; Table 2, read-out: IC50 SPA
  IC50: 29 nM

## O[C@H](CN1c2ccccc2N(Cc2cccc(OC(F)(F)F)c2)CC1c1ccc(-c2ccccc2)cc1)C(F)(F)F (stereo partly drawn) [Example 68]
[2]; Table 2, read-out: IC50 SPA
  IC50: 25 nM

## O[C@H](CN1c2ccccc2N(Cc2cccc(OC(F)(F)F)c2)CC1c1cccc(-c2ccccc2)c1)C(F)(F)F (stereo partly drawn) [Example 69]
[2]; Table 2, read-out: IC50 SPA
  IC50: 163 nM

## COc1cc(F)c(C(C)C)cc1-c1ccc(C(F)(F)F)cc1CN1C(=O)O[C@H](c2cc(C(F)(F)F)cc(C(F)(F)F)c2)[C@@H]1C [anacetrapib]
[4]; patients treated with anacetrapib
  increase in mortality: unlikely
[4]; [6]
  decrease of LDL-C: 40%
  increase of HDL-C: 138%

## CCOC(=O)N1c2ccc(C(F)(F)F)cc2[C@@H](N(Cc2cc(C(F)(F)F)cc(C(F)(F)F)c2)C(=O)OC)C[C@H]1CC [torcetrapib]
[5]
  mortality: higher incidence of mortality
